# From patent US20190240236A1, “ORAL TESTOSTERONE UNDECANOATE THERAPY” (Lipocine Inc., priority 2016, published 2019)
# Experiment: Clinic Study of Testosterone Therapy for hypogonadal males: serum T Cavg and Cmax after oral TU fixed dose regimens
# Type: in vivo, human
# Settings: for Cavg > 300 ng/dL ≥75% patients / Cavg > 300 ng/dL ≥80% patients: with food (at least 10 g fat)
# Experimental: Fixed Dose Dosing Regimen Examples Based on Study Described Below for Estimated or Actual Cavg (Administered with Food with at Least 10 g of Fat)
# The dosage form from Example B of Composition 4 with dosing regimen (Regimen #9-16) of dosing category BID-equal dose with daily dose range 150-600 mg were used for a Clinic Study of Testosterone Therapy for hypogonadal males.
# The clinical study was a randomized double-blind, placebo-controlled dose escalating study of the safety, efficacy, tolerability, and pharmacokinetics of testosterone therapy in hypogonadal males. This clinic study was a single and multiple, ascending-dose study that was designed to determine the optimal starting, titration (if appropriate), or single fixed dose for safety and efficacy targeted by the US FDA. The study also verified the time for testosterone levels to reach steady state and identified a suitable fixed dose dosing regimen that satisfies an unmet need for safety and efficacy for oral TT.
# This study was carried out with conditions of a single-center, randomized, double-blind, placebo-controlled, ascending multiple-dose, and serial-group in adult hypogonadal male subjects. The objectives of this study were: • a) To assess the safety, efficacy, and tolerability of escalating single and multiple oral doses of TU dosage forms in hypogonadal males • b) To determine the pharmacokinetics (PK) of testosterone (T), DHT, TU, DHTU, and estradiol (E2) after single and multiple oral doses of TU dosage forms in hypogonadal males • C) To identify a fixed dose dosing regimen satisfying US FDA targets, without needing to titrate, for restoring serum T levels in hypogonadal males to the normal T range.
# The dosing regimen for this clinical study ranged from 150 mg daily dose (75 mg BID dose) to 600 mg daily dose (300 mg BID dose). Observed pharmacokinetic parameters (T, DHT, TU, DHTU, and E2) after single and multiple oral doses of TU dosage forms in the patients were recorded in connection with each daily dose listed in the report.
# The overall analyzed results of this clinical study were plotted according to % of patients for safety (Cmax<1,500 ng/dL) and efficacy (Cavg>300 ng/dL) with a variety of dosing regimens. Note that only doses that were multiples of 75 mg were tested in the clinical study, the results predicted for the other doses are estimated from these values.
# [1] = Daily dose 410 mg, each BID dose 205 mg
# [2] = Daily dose 420 mg, each BID dose 210 mg
# [3] = Daily dose 430 mg, each BID dose 215 mg
# [4] = Daily dose 438 mg, each BID dose 219 mg
# [5] = Daily dose 450 mg, each BID dose 225 mg
# [6] = Daily dose 460 mg, each BID dose 230 mg
# [7] = Daily dose 474 mg, each BID dose 237 mg
# [8] = Daily dose 480 mg, each BID dose 240 mg
# [9] = Daily dose 490 mg, each BID dose 245 mg
# [10] = Daily dose 500 mg, each BID dose 250 mg
# [11] = Daily dose 518 mg, each BID dose 259 mg
# [12] = Regimen 1, TID-equal dose, TU 75/75/75 mg
# [13] = Regimen 2, TID-equal dose, TU 112/112/112 mg
# [14] = Regimen 3, TID-equal dose, TU 125/125/125 mg
# [15] = Regimen 4, TID-equal dose, TU 150/150/150 mg
# [16] = Regimen 5, TID-equal dose, TU 188/188/188 mg
# [17] = Regimen 6, TID-equal dose, TU 225/225/225 mg
# [18] = Regimen 7, TID-equal dose, TU 237/237/237 mg
# [19] = Regimen 8, TID-equal dose, TU 250/250/250 mg
# [20] = Regimen 9, BID-equal dose (AM/PM), TU 75/75 mg
# [21] = Regimen 10, BID-equal dose (AM/PM), TU 150/150 mg
# [22] = Regimen 11, BID-equal dose (AM/PM), TU 215/215 mg
# [23] = Regimen 12, BID-equal dose (AM/PM), TU 225/225 mg
# [24] = Regimen 13, BID-equal dose (AM/PM), TU 237/237 mg
# [25] = Regimen 14, BID-equal dose (AM/PM), TU 250/250 mg
# [26] = Regimen 15, BID-equal dose (AM/PM), TU 265/265 mg
# [27] = Regimen 16, BID-equal dose (AM/PM), TU 300/300 mg
# [28] = Regimen 17, BID-different dose (AM/PM), TU 75/225 mg
# [29] = Regimen 18, BID-different dose (AM/PM), TU 75/300 mg
# [30] = Regimen 19, BID-different dose (AM/PM), TU 150/225 mg
# [31] = Regimen 20, BID-different dose (AM/PM), TU 225/150 mg
# [32] = Regimen 21, BID-different dose (AM/PM), TU 225/300 mg
# [33] = Regimen 22, BID-different dose (AM/PM), TU 300/75 mg
# [34] = Regimen 23, BID-different dose (AM/PM), TU 300/150 mg
# [35] = Regimen 24, BID-different dose (AM/PM), TU 300/225 mg
smiles,measurement,setting,value
"CCCCCCCCCCC(=O)O[C@H]1CC[C@H]2[C@@H]3CCC4=CC(=O)CC[C@]4(C)[C@H]3CC[C@]12C [TU, testosterone undecanoate]",% with Cavg/day > 300 ng/dL,[1],71.5%
same,"% with Cmax/dose < 1,500 ng/dL",[1],93.7%
same,% with Cavg/day > 300 ng/dL,[2],74.9%
same,"% with Cmax/dose < 1,500 ng/dL",[2],92.8%
same,% with Cavg/day > 300 ng/dL,[3],77.6%
same,"% with Cmax/dose < 1,500 ng/dL",[3],92.1%
same,% with Cavg/day > 300 ng/dL,[4],80.0%
same,"% with Cmax/dose < 1,500 ng/dL",[4],91.2%
same,% with Cavg/day > 300 ng/dL,[5],83.5%
same,"% with Cmax/dose < 1,500 ng/dL",[5],89.9%
same,% with Cavg/day > 300 ng/dL,[6],85.6%
same,"% with Cmax/dose < 1,500 ng/dL",[6],88.9%
same,% with Cavg/day > 300 ng/dL,[7],88.9%
same,"% with Cmax/dose < 1,500 ng/dL",[7],86.8%
same,% with Cavg/day > 300 ng/dL,[8],90.0%
same,"% with Cmax/dose < 1,500 ng/dL",[8],86.1%
same,% with Cavg/day > 300 ng/dL,[9],91.7%
same,"% with Cmax/dose < 1,500 ng/dL",[9],84.6%
same,% with Cavg/day > 300 ng/dL,[10],93.0%
same,"% with Cmax/dose < 1,500 ng/dL",[10],83.2%
same,% with Cavg/day > 300 ng/dL,[11],95.2%
same,"% with Cmax/dose < 1,500 ng/dL",[11],80.0%
same,Cavg > 300 ng/dL ≥75% patients,[12],No
same,Cavg > 300 ng/dL ≥80% patients,[12],No
same,Cavg > 300 ng/dL ≥75% patients,[13],No
same,Cavg > 300 ng/dL ≥80% patients,[13],No
same,Cavg > 300 ng/dL ≥75% patients,[14],No
same,Cavg > 300 ng/dL ≥80% patients,[14],No
same,Cavg > 300 ng/dL ≥75% patients,[15],Yes
same,Cavg > 300 ng/dL ≥80% patients,[15],Yes
same,Cavg > 300 ng/dL ≥75% patients,[16],Yes
same,Cavg > 300 ng/dL ≥80% patients,[16],Yes
same,Cavg > 300 ng/dL ≥75% patients,[17],Yes
same,Cavg > 300 ng/dL ≥80% patients,[17],Yes
same,Cavg > 300 ng/dL ≥75% patients,[18],Yes
same,Cavg > 300 ng/dL ≥80% patients,[18],Yes
same,Cavg > 300 ng/dL ≥75% patients,[19],Yes
same,Cavg > 300 ng/dL ≥80% patients,[19],Yes
same,Cavg > 300 ng/dL ≥75% patients,[20],No
same,Cavg > 300 ng/dL ≥80% patients,[20],No
same,Cavg > 300 ng/dL ≥75% patients,[21],No
same,Cavg > 300 ng/dL ≥80% patients,[21],No
same,Cavg > 300 ng/dL ≥75% patients,[22],Yes
same,Cavg > 300 ng/dL ≥80% patients,[22],No
same,Cavg > 300 ng/dL ≥75% patients,[23],Yes
same,Cavg > 300 ng/dL ≥80% patients,[23],Yes
same,Cavg > 300 ng/dL ≥75% patients,[24],Yes
same,Cavg > 300 ng/dL ≥80% patients,[24],Yes
same,Cavg > 300 ng/dL ≥75% patients,[25],Yes
same,Cavg > 300 ng/dL ≥80% patients,[25],Yes
same,Cavg > 300 ng/dL ≥75% patients,[26],Yes
same,Cavg > 300 ng/dL ≥80% patients,[26],Yes
same,Cavg > 300 ng/dL ≥75% patients,[27],Yes
same,Cavg > 300 ng/dL ≥80% patients,[27],Yes
same,Cavg > 300 ng/dL ≥75% patients,[28],No
same,Cavg > 300 ng/dL ≥80% patients,[28],No
same,Cavg > 300 ng/dL ≥75% patients,[29],No
same,Cavg > 300 ng/dL ≥80% patients,[29],No
same,Cavg > 300 ng/dL ≥75% patients,[30],No
same,Cavg > 300 ng/dL ≥80% patients,[30],No
same,Cavg > 300 ng/dL ≥75% patients,[31],Yes
same,Cavg > 300 ng/dL ≥80% patients,[31],No
same,Cavg > 300 ng/dL ≥75% patients,[32],Yes
same,Cavg > 300 ng/dL ≥80% patients,[32],Yes
same,Cavg > 300 ng/dL ≥75% patients,[33],No
same,Cavg > 300 ng/dL ≥80% patients,[33],No
same,Cavg > 300 ng/dL ≥75% patients,[34],Yes
same,Cavg > 300 ng/dL ≥80% patients,[34],Yes
same,Cavg > 300 ng/dL ≥75% patients,[35],Yes
same,Cavg > 300 ng/dL ≥80% patients,[35],Yes
same,US FDA T level targets for safety and efficacy,"fixed dose regimen, 430 mg TU daily dose (215 mg BID-equal dose) to 480 mg TU daily dose (240 mg BID-equal dose), no titration",can satisfy US FDA T level targets for safety and efficacy without titration
